Measured values taken from US10561739B2, “Targeted pyrrolobenzodiazapine conjugates” (priority 2010, dated 2020).

What was measured:
Type in all cases: cell-based
786-O cells = assay: Free drug 48 hour Cell Titer Glo cytotoxicity, 786-O; conditions: Homo sapiens, 786-0, Table 3, 48 hours, read-out: IC50 Summary for Free Drugs, 786-O
Procedure: (§1) Referring to the following Table 3, the activities of compounds 23, 25, are compared to that of compound 11 on 786-O, Caki-1, MCF-7, HL-60, THP-1, HEL, and TF1 cells. Cells were plated in 150 μL growth media per well into black-sided clear-bottom 96-well plates (Costar, Corning) and allowed to settle for 1 hour in the biological cabinet before placing in the incubator at 37° C., 5% CO2. The following day, 4× concentration of drug stocks were prepared, and then titrated as 10-fold serial dilutions producing 8-point dose curves and added at 50 μl per well in duplicate. Cells were then incubated for 48 hours at 37° C., 5% CO2. Cytotoxicity was measure by incubating with 100 μL Cell Titer Glo (Promega) solution for 1 hour, and then luminescence was measured on a Fusion HT plate reader (Perkin Elmer). Data was processed with Excel (Microsoft) and GraphPad (Prism) to produce dose response curves and IC50 values were generated and data collected.

Caki-1 cells = assay: Free drug 48 hour Cell Titer Glo cytotoxicity, Caki-1; conditions: Homo sapiens, Table 3, 48 hours, read-out: IC50 Summary for Free Drugs, Caki-1
Procedure: as §1

MCF-7 cells [1] = assay: Free drug 48 hour Cell Titer Glo cytotoxicity, MCF-7; conditions: Homo sapiens, MCF7, Table 3, 48 hours, read-out: IC50 Summary for Free Drugs, MCF-7
Procedure: as §1

HL-60 cells = assay: Free drug 48 hour Cell Titer Glo cytotoxicity, HL-60; conditions: Homo sapiens, Table 3, 48 hours, read-out: IC50 Summary for Free Drugs, HL-60
Procedure: as §1

THP-1 cells = assay: Free drug 48 hour Cell Titer Glo cytotoxicity, THP-1; conditions: Homo sapiens, Table 3, 48 hours, read-out: IC50 Summary for Free Drugs, THP-1
Procedure: as §1

HEL cells = assay: Free drug 48 hour Cell Titer Glo cytotoxicity, HEL; conditions: Homo sapiens, Table 3, 48 hours, read-out: IC50 Summary for Free Drugs, HEL
Procedure: as §1

TF1a cells = assay: Free drug 48 hour Cell Titer Glo cytotoxicity, TF1a; conditions: TF-1a, Table 3, 48 hours, read-out: IC50 Summary for Free Drugs, TF1a
Procedure: as §1

MCF-7 cells [2] = assay: Free drug cytotoxicity assay, MCF-7 (Table 2); conditions: Homo sapiens
Procedure: (§2) For a 96-hour assay, cells cultured in log-phase growth were seeded for 24 h in 96-well plates containing 150 μL RPMI 1640 supplemented with 20% FBS. Serial dilutions of test article (i.e., free drug) in cell culture media were prepared at 4× working concentration; 50 μL of each dilution was added to the 96-well plates. Following addition of test article, the cells were incubated with test articles for 4 days at 37° C. Resazurin was then added to each well to achieve a 50 μM final concentration, and the plates were incubated for an additional 4 h at 37° C. The plates were then read for the extent of dye reduction on a Fusion HT plate reader (Packard Instruments, Meridien, Conn., USA) with excitation and emission wavelengths of 530 and 590 nm, respectively. The IC50 value, determined in triplicate, is defined here as the concentration that results in a 50% reduction in cell growth relative to untreated controls.
Referring to the following Table 2, the activity of compounds 28, 30 and 32 is shown on L428, 786-O, HEL, HL-60 and MCF-7 cells, as well as the activity for compound 19 on MCF-7 cells.

[3] = tested on: K562 human chronic myeloid leukaemia cells; assay: K562 assay (MTT cytotoxicity); conditions: drug incubation 1 hour or 96 hours
Procedure: K562 human chronic myeloid leukaemia cells were maintained in RPM1 1640 medium supplemented with 10% fetal calf serum and 2 mM glutamine at 37° C. in a humidified atmosphere containing 5% CO2 and were incubated with a specified dose of drug for 1 hour or 96 hours at 37° C. in the dark. The incubation was terminated by centrifugation (5 min, 300 g) and the cells were washed once with drug-free medium. Following the appropriate drug treatment, the cells were transferred to 96-well microtiter plates (10^4 cells per well, 8 wells per sample). Plates were then kept in the dark at 37° C. in a humidified atmosphere containing 5% CO2. The assay is based on the ability of viable cells to reduce a yellow soluble tetrazolium salt, 3-(4,5-dimethylthiazol-2-yl)-2,5-diphenyl-2H-tetrazolium bromide (MTT, Aldrich-Sigma), to an insoluble purple formazan precipitate. Following incubation of the plates for 4 days (to allow control cells to increase in number by approximately 10 fold), 20 μL of MTT solution (5 mg/mL in phosphate-buffered saline) was added to each well and the plates further incubated for 5 h. The plates were then centrifuged for 5 min at 300 g and the bulk of the medium pipetted from the cell pellet leaving 10-20 μL per well. […] The optical density was then read at a wavelength of 550 nm on a Titertek Multiscan ELISA plate reader, and a dose-response curve was constructed. […]

[4] = tested on: 786-O renal cell carcinoma cell line (CD70+); assay: ADC 96-hour resazurin cytotoxicity assay, 786-O
Procedure: (§3) The in vitro cytotoxic activity of the selected antibody drug conjugates was assessed using a resazurin (Sigma, St. Louis, Mo., USA) reduction assay (reference: Doronina et al., Nature Biotechnology, 2003, 21, 778-784). The antibody drug conjugates were prepared as described above in Example 13.
as §2, with “For the” for “For a”, “of ADC” for “of test article (i.e., free drug)”, “of ADC,” for “of test article,”

[5] = tested on: L428 Hodgkin lymphoma cell line (CD70+/30+); assay: ADC 96-hour resazurin cytotoxicity assay, L428
Procedure: as §3
as §2, with “For the” for “For a”, “of ADC” for “of test article (i.e., free drug)”, “of ADC,” for “of test article,”

control (AML cell line) = assay: ADC 96-hour resazurin cytotoxicity assay, control line of Table 7
Procedure: as §3
as §2, with “For the” for “For a”, “of ADC” for “of test article (i.e., free drug)”, “of ADC,” for “of test article,”
Referring to Table 7, the in vitro cytotoxicity of ADCs containing PBD dimers on CD70^+ cell lines using the 96 hour assay is shown. […]

COc1ccc(C2=CN3C(=O)c4cc(OC)c(OCCCCCOc5cc6c(cc5OC)C(=O)N5C=C(c7ccc(O)cc7)C[C@H]5C=N6)cc4N=C[C@@H]3C2)cc1 [Compound 23, (S)-2-(4-hydroxyphenyl)-7-methoxy-8-(5-((S)-7-methoxy-2-(4-methoxyphenyl)-5-oxo-5,11a-dihydro-1H-pyrrolo[2,1-c][1,4]benzodiazepin-8-yloxy)pentyloxy)-1H-pyrrolo[2,1-c][1,4]benzodiazepine-5(11aH)-one]
IC50 (786-O cells): 0.06 nM | IC50 (Caki-1 cells): 0.02 nM | IC50 (MCF-7 cells [1]): 0.7 nM | IC50 (HL-60 cells): 0.005 nM | IC50 (THP-1 cells): 0.4 nM | IC50 (HEL cells): 0.009 nM | IC50 (TF1a cells): 0.2 nM

COc1cc2c(cc1OCCCCCOc1cc3c(cc1OC)C(=O)N1C=C(c4cccc(N)c4)C[C@H]1C=N3)N=C[C@@H]1CC(c3ccc(N4CCN(C)CC4)cc3)=CN1C2=O [Compound 30, (S)-2-(3-aminophenyl)-7-methoxy-8-(5-((S)-7-methoxy-2-(4-(4-methylpiperazin-1-yl)phenyl)-5-oxo-5,11a-dihydro-H-pyrrolo[2,1-c][1,4]benzodiazepin-8-yloxy)pentyloxy)-1H-pyrrolo[2,1-c][1,4]benzodiazepine-5(11aH)-one]
IC50 (MCF-7 cells [2]; MCF7, Table 2, read-out: IC50 Summary for Free Drugs, MCF-7): 0.01 nM

COc1ccc(C2=CN3C(=O)c4cc(OC)c(OCCCOc5cc6c(cc5OC)C(=O)N5C=C(c7ccc(CN)cc7)C[C@H]5C=N6)cc4N=C[C@@H]3C2)cc1 [Compound 32, (S)-2-(4-(aminomethyl)phenyl)-7-methoxy-8-(3-((S)-7-methoxy-2-(4-methoxyphenyl)-5-oxo-5,11a-dihydro-1H-pyrrolo[2,1-c][1,4]benzodiazepine-8-yloxy)propyloxy)-1H-pyrrolo[2,1-c][1,4]benzodiazepine-5(11aH)-one]
IC50 (MCF-7 cells [2]; MCF7, read-out: IC50 Summary for Free Drugs, MCF-7): 1 nM

COc1ccc(C2=CN3C(=O)c4cc(OC)c(OCCCCCOc5cc6c(cc5OC)C(=O)N5C=C(c7ccc(N)cc7)C[C@H]5C=N6)cc4N=C[C@@H]3C2)cc1 [Compound 13, (S)-2-(4-aminophenyl)-7-methoxy-8-(5-((S)-7-methoxy-2-(4-methoxyphenyl)-5-oxo-5,11a-dihydro-1H-pyrrolo[2,1-c][1,4]benzodiazepine-8-yloxy)pentyloxy)-H-pyrrolo[2,1-c][1,4]benzodiazepine-5(11aH)-one]
IC50 [3]: 0.03 nM

COc1ccc(C2=CN3C(=O)c4cc(OC)c(OCCCCCOc5cc6c(cc5OC)C(=O)N5C=C(c7ccc(C=O)cc7)C[C@H]5C=N6)cc4N=C[C@@H]3C2)cc1 [Compound 25, 4-((S)-7-methoxy-8-(5-((S)-7-methoxy-2-(4-methoxyphenyl)-5-oxo-5,11a-dihydro-1H-pyrrolo[2,1-c][1,4]benzodiazepin-8-yloxy)pentyloxy)-5-oxo-5,11a-dihydro-1H-pyrrolo[2,1-c][1,4]benzodiazepine-2-yl)benzaldehyde]
IC50 (786-O cells): 0.09 nM | IC50 (Caki-1 cells): 0.06 nM | IC50 (MCF-7 cells [1]): 0.8 nM | IC50 (HL-60 cells): 0.01 nM | IC50 (THP-1 cells): 0.9 nM | IC50 (HEL cells): 0.02 nM | IC50 (TF1a cells): 0.9 nM

B1: h1F6-44 (3.5 dr/mAb) (conjugate, chains of the INN, looked up)
VH: QVQLVQSGAEVKKPGASVKVSCKASGYTFTNYGMNWVRQAPGQGLKWMGWINTYTGEPTYADAFKGRVTMTRDTSISTAYMELSRLRSDDTAVYYCARDYGDYGMDYWGQGTTVTVSS
VL: DIVMTQSPDSLAVSLGERATINCRASKSVSTSGYSFMHWYQQKPGQPPKLLIYLASNLESGVPDRFSGSGSGTDFTLTISSLQAEDVAVYYCQHSREVPWTFGQGTKVEIK
modifications: drug-linker 44 conjugate, 3.5 drugs/mAb
In vitro cytotoxic activity (IC50), 786-O [4]: 1.124 µg/mL | In vitro cytotoxic activity (IC50), L428 [5]: 2.142 µg/mL

B2: h1F6 54 (4 dr/rnAb) (conjugate, chains of the INN, looked up)
VH: B1 VH
VL: B1 VL
modifications: drug-linker 54, 4 drugs/mAb
In vitro cytotoxic activity (IC50), 786O [4]: No effect | In vitro cytotoxic activity (IC50), L428 [5]: No effect | In vitro cytotoxic activity (IC50), control (control (AML cell line)): No effect

B3: h1F6- 43(4 dr/rnAb) (conjugate, chains of the INN, looked up)
VH: B1 VH
VL: B1 VL
modifications: drug-linker 43, 4 drugs/mAb
In vitro cytotoxic activity (IC50), 786O [4]: 0.011 µg/mL | In vitro cytotoxic activity (IC50), L428 [5]: 0.404 µg/mL | In vitro cytotoxic activity (IC50), control (control (AML cell line)): 1.205 µg/mL
